Measured values reported in ChEMBL document CHEMBL4184270, “Diastereoselective synthesis of fused cyclopropyl-3-amino-2,4-oxazine β-amyloid cleaving enzyme (BACE) inhibitors and their biological evaluation” (Bioorg Med Chem Lett, 2018).

Columns and labels:
[1] = Dissociation constant, pKa of the compound by UV spectrophotometric method; type: physicochemical
[2] = Apparent permeability in pig LLC-PK1 cells; type: ADME, cell-based, Sus scrofa
[3] = Apparent intrinsic clearance in human liver microsomes at 1 uM; type: ADME, microsome; details: read-out: CLH(app)
[4] = Apparent intrinsic clearance in rat liver microsomes at 1 uM; type: ADME, microsome; details: read-out: CLH(app)
[5] = Plasma concentration in Crl:CD(SD) rat at 10 mg/kg, po administered as single dose via gavage measured after 4 hrs; type: ADME, organism-based
[6] = Unbound plasma concentration in Crl:CD(SD) rat at 10 mg/kg, po administered as single dose via gavage measured after 4 hrs; type: ADME, organism-based; details: in vivo
[7] = Drug level in Crl:CD(SD) rat CSF at 10 mg/kg, po administered as single dose via gavage measured after 4 hrs; type: ADME, organism-based, Cerebrospinal fluid; details: read-out: Drug uptake
[8] = Drug level in Crl:CD(SD) rat brain at 10 mg/kg, po administered as single dose via gavage measured after 4 hrs; type: ADME, organism-based; details: read-out: Drug uptake

Row | SMILES | pKa [1] | Papp [2] | microsomal CLint at 1 µM [3] | microsomal CLint at 1 µM [4] | concentration at 4 h [5] | Cp(f) [6] | concentration at 4 h [7] | concentration at 4 h [8]
1 | COc1cnc(C(=O)Nc2ccc(F)c([C@]3(C)CCOC(N)=N3)c2)cn1 | 9.8 | 3.4 ×10⁻⁶ cm/s | < 14 µL/min/mg | 52 µL/min/mg |  |  |  | 
2 | COc1cnc(C(=O)Nc2ccc(F)c([C@@]3(C)N=C(N)O[C@H]4C[C@H]43)c2)cn1 | 8.8 | 2.5 ×10⁻⁶ cm/s | 162 µL/min/mg |  |  |  |  | 
3 | COc1cnc(C(=O)Nc2ccc(F)c([C@@]3(C)N=C(N)O[C@@H]4C[C@@H]43)c2)cn1 | 9.3 | 1.8 ×10⁻⁶ cm/s | 105 µL/min/mg | 30 µL/min/mg | 2300 nM | 920 nM | 210 nM | 1100 nM
